What was measured:
Assay in all cases: relative viability (nuclei count vs DMSO), 5 days (fraction); higher = more cells survive
Bleomycin + Bortezomib = compound: CC1=C(N=C(N=C1N)[C@H](CC(=O)N)NC[C@@H](C(=O)N)N)C(=O)N[C@@H]([C@H](C2=CN=CN2)OC3C(C(C(C(O3)CO)O)O)OC4C(C(C(C(O4)CO)O)OC(=O)N)O)C(=O)N[C@H](C)[C@H]([C@H](C)C(=O)N[C@@H]([C@@H](C)O)C(=O)NCCC5=NC(=CS5)C6=NC(=CS6)C(=O)NCCC[S+](C)C)O [Bleomycin] + CC(C)C[C@H](NC(=O)[C@H](Cc1ccccc1)NC(=O)c1cnccn1)B(O)O [Bortezomib] (partner 0.002 µM); settings: main component drawn
How it was run: (§1)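 Cells from lung cancer lines were seeded into 1536-well plates and, one day later, dosed by pin tool. Treatments were either a single drug or a fixed dose of an anchor drug with five library-drug doses (not always all listed) in √10 steps. After 5 days, nuclei were stained in a one-step fixation (final 0.05% Triton X-100, 1% formaldehyde, 1 ug/ml Hoechst) and counted on 4× images, and relative viability is the treated-to-vehicle nuclei ratio, as the median of duplicate plates.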

Bleomycin + Navitoclax = compound: CC1=C(N=C(N=C1N)[C@H](CC(=O)N)NC[C@@H](C(=O)N)N)C(=O)N[C@@H]([C@H](C2=CN=CN2)OC3C(C(C(C(O3)CO)O)O)OC4C(C(C(C(O4)CO)O)OC(=O)N)O)C(=O)N[C@H](C)[C@H]([C@H](C)C(=O)N[C@@H]([C@@H](C)O)C(=O)NCCC5=NC(=CS5)C6=NC(=CS6)C(=O)NCCC[S+](C)C)O [Bleomycin] + CC1(C)CCC(c2ccc(Cl)cc2)=C(CN2CCN(c3ccc(C(=O)NS(=O)(=O)c4ccc(N[C@H](CCN5CCOCC5)CSc5ccccc5)c(S(=O)(=O)C(F)(F)F)c4)cc3)CC2)C1 [Navitoclax] (partner 0.5 µM); settings: main component drawn
How it was run: as §1

Bleomycin + Pemetrexed = compound: CC1=C(N=C(N=C1N)[C@H](CC(=O)N)NC[C@@H](C(=O)N)N)C(=O)N[C@@H]([C@H](C2=CN=CN2)OC3C(C(C(C(O3)CO)O)O)OC4C(C(C(C(O4)CO)O)OC(=O)N)O)C(=O)N[C@H](C)[C@H]([C@H](C)C(=O)N[C@@H]([C@@H](C)O)C(=O)NCCC5=NC(=CS5)C6=NC(=CS6)C(=O)NCCC[S+](C)C)O [Bleomycin] + Nc1nc2[nH]cc(CCc3ccc(C(=O)N[C@@H](CCC(=O)O)C(=O)O)cc3)c2c(=O)[nH]1 [Pemetrexed] (partner 0.2 µM); settings: main component drawn
How it was run: as §1

Etoposide + Phenformin = compound: COc1cc([C@@H]2c3cc4c(cc3[C@@H](O[C@@H]3O[C@@H]5CO[C@@H](C)O[C@H]5[C@H](O)[C@H]3O)[C@H]3COC(=O)[C@H]23)OCO4)cc(OC)c1O [Etoposide] + N=C(N)NC(=N)NCCc1ccccc1 [Phenformin] (partner 250 µM)
How it was run: as §1

Cell Line	relative viability (Bleomycin + Bortezomib; first compound 0.01 µM)	relative viability (Bleomycin + Bortezomib; first compound 0.03162 µM)	relative viability (Bleomycin + Bortezomib; first compound 0.1 µM)	relative viability (Bleomycin + Bortezomib; first compound 0.3162 µM)	relative viability (Bleomycin + Bortezomib; first compound 1 µM)	relative viability (Bleomycin + Navitoclax; first compound 0.01 µM)	relative viability (Bleomycin + Navitoclax; first compound 0.03162 µM)	relative viability (Bleomycin + Navitoclax; first compound 0.1 µM)	relative viability (Bleomycin + Navitoclax; first compound 0.3162 µM)	relative viability (Bleomycin + Navitoclax; first compound 1 µM)	relative viability (Bleomycin + Pemetrexed; first compound 0.01 µM)	relative viability (Bleomycin + Pemetrexed; first compound 0.03162 µM)	relative viability (Bleomycin + Pemetrexed; first compound 0.1 µM)	relative viability (Bleomycin + Pemetrexed; first compound 0.3162 µM)	relative viability (Bleomycin + Pemetrexed; first compound 1 µM)	relative viability (Etoposide + Phenformin; first compound 0.01 µM)	relative viability (Etoposide + Phenformin; first compound 0.03162 µM)	relative viability (Etoposide + Phenformin; first compound 0.1 µM)	relative viability (Etoposide + Phenformin; first compound 0.3162 µM)	relative viability (Etoposide + Phenformin; first compound 1 µM)
201T	1.12	1	1.01	0.921	0.827	1.17	1.13	1.18	1.16	1.04	0.332	0.283	0.303	0.281	0.271	0.45	0.51	0.381	0.368	0.322
A549						0.933	0.827	0.54	0.127	0.0446						0.2	0.121	0.116	0.0719	0.0368
A-427	0.857	0.817	0.725	0.167	0.213	0.844	0.888	0.991	0.787	0.27	0.875	0.917	0.868	0.432	0.288	0.362	0.317	0.258	0.213	0.143
ABC-1	0.325	0.311	0.275	0.195	0.242											0.239	0.244	0.241	0.201	0.171
BEN	0.909	0.868	0.967	0.578	0.609	0.0606	0.0742	0.0676	0.0599	0.0555	0.809	0.757	0.723	0.616	0.679	0.249	0.266		0.264	0.289
CAL-12T		0.87	0.692	0.293	0.28	0.964	0.785	0.551	0.228	0.201	0.729	0.482	0.31	0.186	0.156	0.594	0.612	0.586	0.409	0.221
COR-L23	0.669	0.774	0.355	0.136	0.102	0.811	0.723	0.332	0.0914	0.104	0.191	0.203	0.193	0.153	0.146	0.394	0.479	0.434	0.287	0.155
COR-L 105	0.711	0.594	0.549	0.337	0.292	0.59	0.884	0.716	0.483	0.28	0.949	1.06	0.971	0.468	0.573	0.664	0.53	0.405	0.444	0.39
Calu-6	0.638	0.673	0.334	0.226	0.191	0.459	0.336	0.207	0.114	0.0817										
ChaGo-K-1		1.01	0.768	0.393	0.306		0.914	0.724	0.386	0.307	0.267	0.251	0.245	0.261	0.24	0.423	0.546	0.471	0.282	0.169
EBC-1	0.474	0.422	0.469	0.307	0.233	0.392	0.527	0.379	0.274	0.269										
EKVX	0.859	1.04	0.954	0.511	0.318	0.75	0.925	0.842	0.424	0.285	0.36	0.317	0.315	0.285	0.2	0.262	0.271	0.196	0.254	0.178
EMC-BAC-2	0.927	0.92	0.868	0.319	0.279	1.04	1.18	0.979	0.661	0.399	0.416	0.4	0.419	0.476	0.324	0.424	0.483	0.309	0.24	0.197
EPLC-272H	0.863	0.883	0.718	0.174	0.158	0.793	0.888	0.826	1.29	0.159	0.294	0.198	0.146	0.121	0.131	0.281	0.308	0.267	0.263	0.226
H3255	0.664	0.925	0.666	0.283	0.244	0.395	0.596	0.495	0.229	0.179	0.608	0.538	0.507	0.479	0.405	0.35	0.404	0.353	0.322	0.305
HARA	1	1.09	1.04	0.514	0.239	1.1	1.08	1.02	0.747	0.601	0.219	0.228	0.237	0.169	0.217	0.507	0.407	0.504	0.366	0.178
HCC-15	0.914	1.01	0.815	0.299	0.318	0.656	0.68	0.713	0.378	0.324	0.22	0.193	0.233	0.193	0.154	0.496	0.526	0.429	0.152	0.132
HCC-44	0.544	0.333	0.225	0.153	0.145	0.674	0.323	0.278	0.161	0.191	0.625	0.666	0.586	0.526	0.401	0.215	0.156	0.134	0.198	0.112
IA-LM	0.493	0.746	0.676	0.339	0.269	0.498	0.673	0.611	0.28	0.205										

Cell Line	relative viability (Bleomycin + Bortezomib; first compound 0.01 µM)	relative viability (Bleomycin + Bortezomib; first compound 0.03162 µM)	relative viability (Bleomycin + Bortezomib; first compound 0.1 µM)	relative viability (Bleomycin + Bortezomib; first compound 0.3162 µM)	relative viability (Bleomycin + Bortezomib; first compound 1 µM)	relative viability (Bleomycin + Navitoclax; first compound 0.01 µM)	relative viability (Bleomycin + Navitoclax; first compound 0.03162 µM)	relative viability (Bleomycin + Navitoclax; first compound 0.1 µM)	relative viability (Bleomycin + Navitoclax; first compound 0.3162 µM)	relative viability (Bleomycin + Navitoclax; first compound 1 µM)	relative viability (Bleomycin + Pemetrexed; first compound 0.01 µM)	relative viability (Bleomycin + Pemetrexed; first compound 0.03162 µM)	relative viability (Bleomycin + Pemetrexed; first compound 0.1 µM)	relative viability (Bleomycin + Pemetrexed; first compound 0.3162 µM)	relative viability (Bleomycin + Pemetrexed; first compound 1 µM)	relative viability (Etoposide + Phenformin; first compound 0.01 µM)	relative viability (Etoposide + Phenformin; first compound 0.03162 µM)	relative viability (Etoposide + Phenformin; first compound 0.1 µM)	relative viability (Etoposide + Phenformin; first compound 0.3162 µM)	relative viability (Etoposide + Phenformin; first compound 1 µM)
LCLC-103H	1.07	1.12	1.1	0.556	0.467						0.452	0.443	0.455	0.487	0.419	0.316	0.348	0.329	0.346	0.305
LK-2						0.478	0.537	0.415	0.214	0.239	0.243	0.252	0.204	0.146	0.133	0.563	0.641	0.368	0.319	0.172
NCI-H358											0.164	0.197	0.168	0.183	0.175	0.341	0.402	0.219	0.114	0.0696
NCI-H522											0.844	0.815	0.85	0.49	0.321	0.665	0.623	0.535	0.595	0.614
NCI-H650	0.548	0.697	0.569	0.259	0.214						0.708	0.951	0.78	0.479	0.34	0.445	0.508	0.394	0.363	0.226
NCI-H661	0.838	0.603	0.484	0.228	0.251						0.886	0.821	0.688	0.412	0.366	0.283	0.289	0.267	0.249	0.208
NCI-H727	0.796	0.853	0.775	0.303	0.37	0.388	0.339	0.351	0.181	0.286						0.556	0.664		0.531	0.437
NCI-H1299	0.963	0.994	0.95	0.435	0.412	0.977	1.01	0.922	0.396	0.376										
NCI-H1395						0.829	0.944	0.709	0.535	0.496	0.64	0.702	0.566	0.4	0.371	0.464	0.415	0.473	0.441	0.425
NCI-H1563	0.755	0.767	0.689	0.536	0.531						0.618	0.915	0.691	0.54	0.575	0.628	0.7	0.609	0.55	0.476
NCI-H1623																0.624	0.615	0.388	0.485	0.281
NCI-H1648											0.669	0.614	0.508	0.483	0.469					
NCI-H1703	0.328	0.276	0.245	0.134	0.125	1.05	1.11	0.531	0.278	0.203										
NCI-H1793						0.355	0.404	0.298	0.177	0.163	0.739	0.729	0.692	0.134	0.191	0.329	0.47		0.394	0.159
NCI-H1944						0.762	0.77	0.594	0.423	0.233	0.36	0.398	0.313	0.216	0.157	0.189	0.275	0.213	0.148	0.123
NCI-H2170						0.503	0.555	0.578	0.414	0.377	0.255	0.263	0.244	0.235	0.234	0.373	0.429	0.468	0.409	0.348
NCI-H2342											0.837	0.759	0.685	0.539	0.62	0.646	0.643	0.425	0.351	0.284
SK-MES-1						1.12	0.97	0.736	0.278	0.18	0.767	0.899	0.807	0.379	0.213	0.654	0.683	0.582	0.402	0.248
SW 900											0.469	0.461	0.391	0.2	0.191	0.359	0.618	0.459	0.322	0.16
